The values below come from patent US12595288B2 (priority 2020, dated 2026).

For experiment [1], the target named is human vasopressin-2 receptor (V2R) (Homo sapiens, UniProt P30518). Kind of experiment: biochemical. It counts as binding.
Another experiment concerns the target Cathepsin B (Homo sapiens, UniProt P07858). It counts as biochemical. The conditions noted are these: read-out: Compound IC50.
Another experiment addresses Cathepsin C (Homo sapiens, UniProt P53634). The experiment can be described thus: biochemical.
In another experiment the target is Cathepsin H (Homo sapiens, UniProt P09668). The experiment is classed as biochemical. The conditions noted are these: read-out: Compound IC50.
The next experiment deals with Cathepsin L (Homo sapiens, UniProt P07711). It counts as biochemical. The following applies: read-out: Compound IC50.
A further experiment has as its target Cathepsin S (Homo sapiens, UniProt P25774). It counts as biochemical. The conditions noted are these: read-out: Compound IC50.
In another experiment the target is Cathepsin V (Homo sapiens, UniProt O60911). It counts as biochemical. The conditions noted are these: read-out: Compound IC50.
In a further experiment the target is Papain (Carica papaya, UniProt P00784). The experiment can be described thus: biochemical.
Papain, sequence (P00784 134-345): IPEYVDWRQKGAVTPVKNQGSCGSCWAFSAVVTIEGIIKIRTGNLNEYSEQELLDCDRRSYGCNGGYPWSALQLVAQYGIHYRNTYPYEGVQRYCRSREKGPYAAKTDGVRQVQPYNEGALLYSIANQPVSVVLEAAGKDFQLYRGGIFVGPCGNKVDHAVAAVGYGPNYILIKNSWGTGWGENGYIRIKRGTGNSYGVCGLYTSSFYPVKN
A further experiment has as its target Cathepsin G (Homo sapiens, UniProt P08311). The experiment can be described thus: biochemical.
The next experiment has as its target Chymase (Homo sapiens, UniProt P23946). The experiment can be described thus: biochemical.
The test system of another experiment is V2R versus V1a. The following applies: cited from earlier work.
Experiment [2] addresses human Arginine Vasopressin Receptor 2A (AVPR2A) (Homo sapiens, UniProt P30518). Kind of experiment: cell-based.
For the next experiment, the target named is Caspase 1 (Homo sapiens, UniProt P29466). The experiment can be described thus: biochemical.
Caspase 1, sequence (P29466 120-404): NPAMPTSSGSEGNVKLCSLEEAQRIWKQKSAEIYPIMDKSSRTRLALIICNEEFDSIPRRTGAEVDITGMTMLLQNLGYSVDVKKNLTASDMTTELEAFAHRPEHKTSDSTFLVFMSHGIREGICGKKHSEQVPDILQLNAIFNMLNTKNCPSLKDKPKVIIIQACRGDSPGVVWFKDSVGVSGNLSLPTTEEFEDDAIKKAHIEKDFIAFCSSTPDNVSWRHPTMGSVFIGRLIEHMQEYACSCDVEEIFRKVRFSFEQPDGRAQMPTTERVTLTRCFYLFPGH
A further experiment concerns the target Caspase 2 (Homo sapiens, UniProt P42575). The experiment can be described thus: biochemical.
The next experiment concerns the target Caspase 5 (Homo sapiens, UniProt P51878). Kind of experiment: biochemical.
The target in the next experiment is Caspase 6 (Homo sapiens, UniProt P55212). Kind of experiment: biochemical.
Caspase 6, sequence (P55212 24-293 limits assumed): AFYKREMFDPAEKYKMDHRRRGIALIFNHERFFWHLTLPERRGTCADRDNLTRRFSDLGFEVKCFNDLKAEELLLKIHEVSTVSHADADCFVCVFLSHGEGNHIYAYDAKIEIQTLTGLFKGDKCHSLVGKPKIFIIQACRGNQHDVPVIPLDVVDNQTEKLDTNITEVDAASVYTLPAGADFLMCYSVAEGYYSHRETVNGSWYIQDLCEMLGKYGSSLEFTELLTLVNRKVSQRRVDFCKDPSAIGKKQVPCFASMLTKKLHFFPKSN
The target of the next experiment is Caspase 9 (Homo sapiens, UniProt P55211). Kind of experiment: biochemical.
Caspase 9, sequence (P55211 131-416): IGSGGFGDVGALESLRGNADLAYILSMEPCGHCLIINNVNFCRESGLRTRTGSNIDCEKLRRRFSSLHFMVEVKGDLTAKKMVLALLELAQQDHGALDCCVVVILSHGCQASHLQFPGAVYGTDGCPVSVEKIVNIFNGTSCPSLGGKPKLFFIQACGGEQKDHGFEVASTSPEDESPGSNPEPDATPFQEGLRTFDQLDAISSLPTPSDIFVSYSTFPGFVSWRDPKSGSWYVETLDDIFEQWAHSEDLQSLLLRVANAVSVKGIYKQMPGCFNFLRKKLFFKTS
Another experiment has as its target Caspase 10 (Homo sapiens, UniProt Q92851). Kind of experiment: biochemical.
The target of the next experiment is Caspase 11 (Mus musculus, UniProt P70343). Kind of experiment: biochemical.
Caspase 11, sequence (P70343 102-373): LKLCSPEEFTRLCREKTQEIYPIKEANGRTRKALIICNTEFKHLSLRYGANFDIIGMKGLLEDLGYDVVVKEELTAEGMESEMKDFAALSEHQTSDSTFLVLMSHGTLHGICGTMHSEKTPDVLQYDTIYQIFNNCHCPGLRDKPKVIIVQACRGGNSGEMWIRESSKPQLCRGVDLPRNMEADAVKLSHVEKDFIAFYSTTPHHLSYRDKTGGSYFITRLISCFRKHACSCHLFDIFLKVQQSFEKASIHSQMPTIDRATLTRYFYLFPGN
A further experiment concerns the target Chymotrypsin (Bos taurus, UniProt P00766). The experiment can be described thus: biochemical. Details: species or system Bovine.
The target in another experiment is Elastase (Homo sapiens, UniProt P08246). Kind of experiment: biochemical.
The target in another experiment is Kallikrein 5 (Homo sapiens, UniProt Q9Y337). The experiment can be described thus: biochemical.
Another experiment deals with Kallikrein 7 (Homo sapiens, UniProt P49862). The experiment can be described thus: biochemical.
Kallikrein 7, sequence (P49862 30-252): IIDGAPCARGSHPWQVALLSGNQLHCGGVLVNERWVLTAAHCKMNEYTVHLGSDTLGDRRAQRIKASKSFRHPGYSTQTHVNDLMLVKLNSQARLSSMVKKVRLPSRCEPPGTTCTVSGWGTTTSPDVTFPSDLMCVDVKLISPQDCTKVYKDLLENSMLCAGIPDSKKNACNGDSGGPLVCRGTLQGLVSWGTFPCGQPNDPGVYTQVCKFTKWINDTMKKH
A further experiment has as its target Matriptase 2 (Homo sapiens, UniProt Q8IU80). The experiment can be described thus: biochemical.
In a further experiment the target is Plasma Kallikrein (Homo sapiens, UniProt P03952). The experiment can be described thus: biochemical.
Plasma Kallikrein, sequence (P03952 20-390): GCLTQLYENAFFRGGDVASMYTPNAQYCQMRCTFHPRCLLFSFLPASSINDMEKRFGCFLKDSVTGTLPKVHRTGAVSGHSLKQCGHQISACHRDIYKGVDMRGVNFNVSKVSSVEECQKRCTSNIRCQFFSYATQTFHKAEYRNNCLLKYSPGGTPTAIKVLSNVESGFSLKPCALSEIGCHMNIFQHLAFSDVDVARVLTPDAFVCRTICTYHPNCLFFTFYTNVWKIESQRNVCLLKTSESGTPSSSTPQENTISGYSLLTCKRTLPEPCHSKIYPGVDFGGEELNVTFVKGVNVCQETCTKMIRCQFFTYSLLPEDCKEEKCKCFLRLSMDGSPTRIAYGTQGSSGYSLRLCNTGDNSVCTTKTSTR
Plasma Kallikrein, sequence (P03952 391-638): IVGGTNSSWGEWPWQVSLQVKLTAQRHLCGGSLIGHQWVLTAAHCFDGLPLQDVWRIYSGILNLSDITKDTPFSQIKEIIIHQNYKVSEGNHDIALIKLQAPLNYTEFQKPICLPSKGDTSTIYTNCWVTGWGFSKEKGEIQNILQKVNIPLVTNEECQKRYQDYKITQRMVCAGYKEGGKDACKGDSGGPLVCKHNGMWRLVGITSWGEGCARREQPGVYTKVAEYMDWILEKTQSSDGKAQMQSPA
The next experiment has as its target Trypsin (Bos taurus, UniProt P00760). Kind of experiment: biochemical. Details: species or system Bovine.
The target in the next experiment is Tryptase b2 (Homo sapiens, UniProt P20231). The experiment can be described thus: biochemical.
In another experiment the target is Tryptase g1. It counts as biochemical, Human. The conditions noted are these: read-out: Compound IC50.
Experiment [3] relates to 156 other GPCRs, including V1aR, V1bR and OTR. The following applies: cited from earlier work.
Another experiment addresses Kallikrein 1 (Homo sapiens, UniProt P06870). The experiment can be described thus: biochemical.
In another experiment the target is Proteinase A (Bacillus licheniformis, UniProt P00780). The experiment can be described thus: biochemical. Also noted: species or system Bacillus Iicheniformis.
Experiment [4] has as its system DDAVP-induced hyponatremia in Sprague-Dawley rats. The following applies: rat, in vivo.
A further experiment has as its target FXa (Homo sapiens, UniProt P00742). It counts as biochemical. The conditions noted are these: read-out: Compound IC50.
In another experiment the target is Kallikrein 12 (Homo sapiens, UniProt Q9UKR0). It counts as biochemical. The conditions noted are these: read-out: Compound IC50.
In another experiment the target is Kallikrein 13 (Homo sapiens, UniProt Q9UKR3). It counts as biochemical. The following applies: read-out: Compound IC50.
A further experiment deals with Kallikrein 14 (Homo sapiens, UniProt Q9P0G3). It counts as biochemical. The conditions noted are these: read-out: Compound IC50.
For a further experiment, the target named is Plasmin (Homo sapiens, UniProt P00747). The experiment is classed as biochemical. The conditions noted are these: read-out: Compound IC50.
Another experiment has as its target Thrombin A (Homo sapiens, UniProt P00734). The experiment is classed as biochemical. The conditions noted are these: read-out: Compound IC50.
In a further experiment the target is Urokinase (Homo sapiens, UniProt P00749). It counts as biochemical. The following applies: read-out: Compound IC50.
For the next experiment, the target named is Caspase 4 (Homo sapiens, UniProt P49662). The experiment is classed as biochemical. The conditions noted are these: read-out: Compound IC50.
The next experiment concerns the target Caspase 8 (Homo sapiens, UniProt Q14790). It counts as biochemical. The conditions noted are these: read-out: Compound IC50.
Another experiment concerns the target Caspase 7 (Homo sapiens, UniProt P55210). It counts as biochemical. The following applies: read-out: Compound IC50.

Where two headings read alike, the source gives them in different places. Bridge positions count the residues as written; N and C are the ends. Ends that are not written are not given here. Peptide text beside a SMILES is read from it.

human vasopressin-2 receptor (V2R), sequence (P30518 whole entry): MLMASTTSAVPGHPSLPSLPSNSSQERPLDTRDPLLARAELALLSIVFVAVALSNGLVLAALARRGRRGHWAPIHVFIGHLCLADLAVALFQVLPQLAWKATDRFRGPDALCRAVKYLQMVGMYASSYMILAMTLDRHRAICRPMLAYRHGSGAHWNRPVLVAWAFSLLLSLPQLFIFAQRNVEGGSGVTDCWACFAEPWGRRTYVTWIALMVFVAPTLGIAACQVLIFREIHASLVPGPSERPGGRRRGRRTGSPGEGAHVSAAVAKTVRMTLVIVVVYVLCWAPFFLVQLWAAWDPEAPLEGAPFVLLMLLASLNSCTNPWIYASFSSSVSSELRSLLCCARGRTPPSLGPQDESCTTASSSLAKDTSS
Chymase, sequence (P23946 22-247): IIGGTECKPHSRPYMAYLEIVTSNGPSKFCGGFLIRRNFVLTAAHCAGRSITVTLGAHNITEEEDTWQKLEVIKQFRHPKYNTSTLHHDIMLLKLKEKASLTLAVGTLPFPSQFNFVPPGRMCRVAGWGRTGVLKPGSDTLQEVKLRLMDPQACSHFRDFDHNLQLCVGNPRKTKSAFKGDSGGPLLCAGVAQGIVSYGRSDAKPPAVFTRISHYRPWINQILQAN
Caspase 5, sequence (P51878 347-434): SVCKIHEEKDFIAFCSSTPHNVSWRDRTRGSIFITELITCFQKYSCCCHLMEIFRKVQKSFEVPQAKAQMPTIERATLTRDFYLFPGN
Caspase 5, sequence (P51878 138-327): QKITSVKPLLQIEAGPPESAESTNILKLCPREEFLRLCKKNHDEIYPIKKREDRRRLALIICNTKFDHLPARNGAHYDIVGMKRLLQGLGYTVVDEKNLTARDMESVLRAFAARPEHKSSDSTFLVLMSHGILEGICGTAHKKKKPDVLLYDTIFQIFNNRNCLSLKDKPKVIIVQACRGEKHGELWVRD
Cathepsin G, sequence (P08311 21-244): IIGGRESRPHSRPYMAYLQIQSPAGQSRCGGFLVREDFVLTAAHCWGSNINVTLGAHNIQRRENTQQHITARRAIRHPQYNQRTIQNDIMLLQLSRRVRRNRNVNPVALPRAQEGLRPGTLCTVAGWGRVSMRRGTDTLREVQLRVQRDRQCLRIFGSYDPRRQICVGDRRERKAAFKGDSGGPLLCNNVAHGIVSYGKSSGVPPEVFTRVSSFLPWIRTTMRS
Trypsin, sequence (P00760 24-246): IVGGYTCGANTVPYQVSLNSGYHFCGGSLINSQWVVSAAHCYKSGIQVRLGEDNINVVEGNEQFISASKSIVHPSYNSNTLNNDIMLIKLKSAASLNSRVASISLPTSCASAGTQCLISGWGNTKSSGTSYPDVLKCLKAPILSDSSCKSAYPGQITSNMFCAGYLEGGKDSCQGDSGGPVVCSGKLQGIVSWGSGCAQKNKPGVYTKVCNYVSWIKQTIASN
Matriptase 2, sequence (Q8IU80 78-811): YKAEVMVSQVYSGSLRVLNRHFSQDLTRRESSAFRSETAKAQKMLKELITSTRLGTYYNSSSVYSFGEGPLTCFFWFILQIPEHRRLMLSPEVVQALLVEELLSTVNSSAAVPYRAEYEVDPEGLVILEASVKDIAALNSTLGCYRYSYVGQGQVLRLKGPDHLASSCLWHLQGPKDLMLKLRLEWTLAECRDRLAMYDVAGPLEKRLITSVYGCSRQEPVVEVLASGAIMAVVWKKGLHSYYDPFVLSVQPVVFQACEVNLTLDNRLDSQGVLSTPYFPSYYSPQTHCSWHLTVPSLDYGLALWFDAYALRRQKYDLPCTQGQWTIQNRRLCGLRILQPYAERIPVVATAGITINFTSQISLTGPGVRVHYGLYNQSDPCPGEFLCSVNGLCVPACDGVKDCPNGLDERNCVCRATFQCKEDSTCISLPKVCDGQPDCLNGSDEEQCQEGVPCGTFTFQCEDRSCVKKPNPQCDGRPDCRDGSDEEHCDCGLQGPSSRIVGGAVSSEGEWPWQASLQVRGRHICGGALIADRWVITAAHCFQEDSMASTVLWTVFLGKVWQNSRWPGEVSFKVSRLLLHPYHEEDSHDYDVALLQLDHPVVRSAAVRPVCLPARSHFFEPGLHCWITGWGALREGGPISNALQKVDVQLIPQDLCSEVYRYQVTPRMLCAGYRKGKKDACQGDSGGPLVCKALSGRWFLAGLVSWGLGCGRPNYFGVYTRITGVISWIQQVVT
Cathepsin C, sequence (P53634 25-143): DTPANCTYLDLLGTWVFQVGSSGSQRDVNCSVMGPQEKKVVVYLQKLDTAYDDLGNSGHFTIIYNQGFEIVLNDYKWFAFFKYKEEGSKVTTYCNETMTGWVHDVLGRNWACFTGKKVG
Cathepsin C, sequence (P53634 231-394): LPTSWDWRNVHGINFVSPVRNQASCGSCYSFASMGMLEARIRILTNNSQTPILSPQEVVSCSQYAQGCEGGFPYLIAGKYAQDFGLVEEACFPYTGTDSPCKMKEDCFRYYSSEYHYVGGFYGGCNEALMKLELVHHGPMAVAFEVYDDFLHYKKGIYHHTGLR
Cathepsin C, sequence (P53634 395-463): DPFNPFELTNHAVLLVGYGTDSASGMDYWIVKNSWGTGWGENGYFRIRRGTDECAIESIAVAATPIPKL

In the case of “RPSFCNLPVEPGPCNGFFSAFYYSQKTNKCHSFTYGGCKGNANRFSTLEKCRRTCVG (disulfide 5-55, 14-38, 30-51) [K10E]”, the Ki – broadly, the dissociation constant of the complex between target and ligand, obtained from inhibition or displacement – in experiment [1] is 337 nM.
With `CC(C)C[C@H](NC(=O)[C@H]1O[C@@H]1C(=O)O)C(=O)NCCCCN=C(N)N` [E64], the half-inhibitory concentration (IC50) (commonly the concentration at which inhibition is half-maximal) at Cathepsin B was 5.1 nM; on Cathepsin C (read-out: Compound IC50), 590 nM; on Cathepsin H, 67.1 nM; at Cathepsin L, 1.96 nM; at Cathepsin S it was 5.43 nM; on Cathepsin V, 19.7 nM. Further, at Papain (read-out: Compound IC50), the IC50 was 0.118 nM.
`CC(C)C[C@H](NC(=O)[C@@H](NC(=O)N[C@@H](Cc1ccccc1)C(=O)O)[C@@H]1CCN=C(N)N1)C(=O)N[C@H](C=O)Cc1ccccc1` [Chymostatin]: the IC50 against Cathepsin G was 236 nM; against Chymase, 19.9 nM.
Regarding `CCOc1ccc2c(c1)C1(CCC(OCCN3CCOCC3)CC1)C(=O)N2S(=O)(=O)c1ccc(C(=O)NC(C)(C)C)cc1OC` (stereo not drawn) [Satavaptan], the V2/Vla selectivity index in the experiment with V2R versus V1a is listed as 112.
Consider “RPSFCNLPVAPGPCNGFFSAFYYSQKTNKCHSFTYGGCKGNANRFSTLEKCRRTCVG (disulfide 5-55, 14-38, 30-51) [K10A]”, for which, in [1], the Ki amounted to 9.38 nM.
The same measure, in the same setting: the value for “RPSFCNLPVKPGPCNGFFSAFYYSQKTNKCHSFTYGGCKGNANEFSTLEKCRRTCVG (disulfide 5-55, 14-38, 30-51) [R44E]” was 99.3 nM.
`CC[C@H](C)[C@@H]1NC(=O)[C@H]([C@@H](C)O)NC(=O)[C@H](CO)NC(=O)[C@H](Cc2ccccc2)NC(=O)[C@H](CCCNC(=N)N)NC(=O)[C@H](CC(N)=O)NC(=O)[C@H](C)NC(=O)[C@H](CC(N)=O)NC(=O)CNC(=O)[C@H](CCCCN)NC(=O)[C@@H]2CSSC[C@@H]3NC(=O)[C@@H]4CCCN4C(=O)CNC(=O)[C@@H]4CCCN4C(=O)[C@H](CCCCN)NC(=O)[C@H](C(C)C)NC(=O)[C@@H]4CCCN4C(=O)[C@H](CC(C)C)NC(=O)[C@H](CC(N)=O)NC(=O)[C@@H](NC(=O)[C@H](Cc4ccccc4)NC(=O)[C@H](CO)NC(=O)[C@@H]4CCCN4C(=O)[C@@H](N)CCCNC(=N)N)CSSC[C@@H](C(=O)N[C@H](C(=O)NCC(=O)O)C(C)C)NC(=O)[C@H]([C@@H](C)O)NC(=O)[C@H](CCCNC(=N)N)NC(=O)[C@H](CCCNC(=N)N)NC(=O)[C@H](CSSC[C@H](NC(=O)[C@H](CCCCN)NC(=O)[C@H](CC(N)=O)NC(=O)[C@H]([C@@H](C)O)NC(=O)[C@H](CCCCN)NC(=O)[C@H](CCC(N)=O)NC(=O)[C@H](CO)NC(=O)[C@H](Cc4ccc(O)cc4)NC(=O)[C@H](Cc4ccc(O)cc4)NC(=O)[C@H](Cc4ccccc4)NC(=O)[C@H](C)NC(=O)[C@H](CO)NC(=O)[C@H](Cc4ccccc4)NC(=O)[C@H](Cc4ccccc4)NC(=O)CNC(=O)[C@H](CC(N)=O)NC3=O)C(=O)N[C@@H](Cc3c[nH]cn3)C(=O)N[C@@H](CO)C(=O)N[C@@H](Cc3ccccc3)C(=O)N[C@@H]([C@@H](C)O)C(=O)N[C@@H](Cc3ccc(O)cc3)C(=O)NCC(=O)NCC(=O)N2)NC(=O)[C@H](CCCCN)NC(=O)[C@H](CCC(=O)O)NC1=O` [WT MQ1 peptide, mambaquaretin]: the half-maximal inhibitory concentration (IC50) in [2] was 192 nM; on Caspase 1, 37100 nM; on Caspase 2 it was 42500 nM; against Caspase 5, over 50000 nM; against Caspase 6 it was over 50000 nM; on Caspase 9, 8940 nM. Besides, the IC50 against Caspase 10 was 9330 nM; against Caspase 11, 14000 nM; at Cathepsin C it was 45900 nM; against Cathepsin G it was 8540 nM; on Chymase, 18200 nM; at Chymotrypsin, 2740 nM. In addition, the IC50 against Elastase is over 50000 nM; at Kallikrein 5 it was 5770 nM; against Kallikrein 7 it was 3650 nM; at Matriptase 2 it was 116 nM; at Papain it was 17600 nM; on Plasma Kallikrein it was 3890 nM. The IC50 at Trypsin was 3690 nM; against Tryptase b2, 3630 nM; on Tryptase g1, over 50000 nM. Moreover, in [3], the “affinity for 156 other GPCRs” value is on record as “no affinity at μM concentrations”.
On to `Cc1nc2c([nH]1)-c1ccccc1N(C(=O)c1ccc(NC(=O)c3ccccc3-c3ccccc3)cc1)CC2` [Conivaptan], for which the V2/Vla selectivity index in the experiment with V2R versus V1a is recorded as 0.15.
On to “RPSFCNLPVKPGPCNGFFSAFYYSQKTNKCHSFTYGGCKGAANRFSTIEKCRRTCVG (disulfide 5-55, 14-38, 30-51) [N41A]”, for which, in experiment [1], affinity was put at a Ki of 8.49 nM.
Take `CC(=O)N[C@@H](CC(C)C)C(=O)N[C@@H](CC(C)C)C(=O)N[C@H](C=O)CCCNC(=N)N` [Leupeptin]: the half-inhibitory concentration (IC50) was 296 nM at Kallikrein 1 and 31500 nM at Proteinase A.
Turning to `Cc1ccccc1C(=O)Nc1ccc(C(=O)N2CCCC(O)c3cc(Cl)ccc32)c(C)c1` (stereo not drawn) [tolvaptan], the “plasmatic sodium concentration versus vehicle-treated group” value in [4] is “significantly different from values on the vehicle-treated group”.
“RPSFCNLPVKPGPCNGFFSAFYYSQKTNKCHSFTYGGCKGNANAFSTLEKCRRTCVG (disulfide 5-55, 14-38, 30-51) [R44A]” gave a Ki in experiment [1] of 13.3 nM.
Consider “Gabexate mesylate [Gabexate mesylate (GM)]”, for which the IC50 on Elastase (read-out: Compound IC50) came to 216 nM; at FXa it was 4470 nM; at Kallikrein 5 (read-out: Compound IC50) it was 697 nM; at Kallikrein 7 (read-out: Compound IC50) it was 46500 nM; on Kallikrein 12, 65.4 nM; on Kallikrein 13, 11800 nM. The IC50 was determined as 672 nM at Kallikrein 14; 315 nM at Matriptase 2 (read-out: Compound IC50); 30.3 nM on Plasma Kallikrein (read-out: Compound IC50); 344 nM on Plasmin; 3160 nM on Thrombin A; 11.2 nM at Trypsin (read-out: Compound IC50). For the same compound, the IC50 at Tryptase b2 (read-out: Compound IC50) is 19.8 nM; on Tryptase g1, 10.1 nM; at Urokinase, 614 nM.
Consider `CC[C@H](C)[C@H](NC(C)=O)C(=O)N[C@@H](CCC(=O)O)C(=O)N[C@H](C(=O)N[C@H](C=O)CC(=O)O)[C@@H](C)O` [IETD-CHO] (Ac-IETD-aldehyde), for which the half-inhibitory concentration (IC50) at Caspase 1 (read-out: Compound IC50) is 89.3 nM; on Caspase 2 (read-out: Compound IC50), 646 nM; at Caspase 4, 2180 nM; at Caspase 5 (read-out: Compound IC50) it was 38.3 nM; on Caspase 8 it was 2.52 nM; on Caspase 9 (read-out: Compound IC50), 51.5 nM. Also, the half-inhibitory concentration (IC50) at Caspase 10 (read-out: Compound IC50) came out at 28.3 nM; at Caspase 11 (read-out: Compound IC50), 934 nM.
For the compound `CC(=O)N[C@@H](CC(=O)O)C(=O)N[C@@H](CCC(=O)O)C(=O)N[C@H](C(=O)N[C@H](C=O)CC(=O)O)C(C)C` [DEVD-CHO], the results for the 50% inhibitory concentration (IC50) at Caspase 6 (read-out: Compound IC50) and on Caspase 7 were 26.5 nM and 5.11 nM, respectively.
